This note sets out measurements from ChEMBL document CHEMBL3286370, “Synthesis of triterpenoid triazine derivatives from allobetulone and betulonic acid with biological activities” (Bioorg Med Chem, 2014).

The structures appear in SMILES notation. A value given as a limit tells only on which side of the number the result lay.

Data set [1] deals with Human alphaherpesvirus 3. Description: Antiviral activity against thymidine kinase-deficient Varicella zoster virus 07-1 assessed as reduction in virus-induced cytopathogenicity by cell-based assay. The format is functional, organism-based. Particulars: Human alphaherpesvirus 3, 07-1.
Data set [2] concerns Human betaherpesvirus 5. Kind of data set: Antiviral activity against Human cytomegalovirus AD169 assessed as reduction in viral plaque formation. It is filed as functional, organism-based. Conditions: Human betaherpesvirus 5, AD169.
Data set [3] relates to Human betaherpesvirus 5. Description: Antiviral activity against Human cytomegalovirus Davis assessed as reduction in viral plaque formation. It is filed as functional, organism-based. Conditions: Human betaherpesvirus 5, Davis.
Data set [4] in a line: Cytotoxicity against HEL cells assessed as alteration in cellular morphology. It is filed as cell-based. Conditions: human.
Data set [5] is described as follows: Cytotoxicity against HEL cells assessed as growth inhibition. It is filed as cell-based. Conditions: human.
The next data set concerns L1210. Kind of data set: Cytostatic activity against mouse L1210 cells after 48 hrs by Coulter counting analysis. The format is functional, cell-based. Particulars: L1210, 48 h.
The next data set concerns CCRF-CEM. Description: Cytostatic activity against human CEM cells after 72 hrs by Coulter counting analysis. The format is functional, cell-based.
Another data set relates to HeLa. Kind of data set: Cytostatic activity against human HeLa cells after 72 hrs by Coulter counting analysis. It is filed as functional, cell-based.
Data set [6] deals with Human alphaherpesvirus 1. Description: Antiviral activity against Herpes simplex virus type 1 KOS assessed as reduction in virus-induced cytopathogenicity by cell-based assay. Conditions: Human alphaherpesvirus 1, KOS. It is filed as functional, organism-based. Background: Protection from cytopathic effect is a common read-out in antiviral testing.
Data set [7] deals with Human alphaherpesvirus 1. Description: Antiviral activity against thymidine kinase-deficient ACV-resistant Herpes simplex virus type 1 KOS assessed as reduction in virus-induced cytopathogenicity by cell-based assay. The format is functional, organism-based. Particulars: Human alphaherpesvirus 1, KOS.
In another data set the test system is Human alphaherpesvirus 2. Description: Antiviral activity against Herpes simplex virus type 2 G assessed as reduction in virus-induced cytopathogenicity by cell-based assay. The format is functional, organism-based. Particulars: Human alphaherpesvirus 2, strain G.
Data set [8] relates to Human alphaherpesvirus 3. Description: Antiviral activity against Varicella zoster virus Oka assessed as reduction in virus-induced cytopathogenicity by cell-based assay. Particulars: Human alphaherpesvirus 3, strain Oka vaccine. It is filed as functional, organism-based.

The term EC50 denotes the concentration needed to bring the measured effect to its halfway point. Broadly, the CC50 is the concentration that lowers cell viability or growth by half. Broadly, the IC50 is the midpoint of a concentration-inhibition curve. Lower therefore signals greater potency in that assay.

Take `C=C(C)[C@@H]1CC[C@]2(C(=O)O)CC[C@]3(C)[C@H](CC[C@@H]4[C@@]5(C)CC(=O)C(=O)C(C)(C)[C@@H]5CC[C@]43C)[C@@H]12`: the EC50 in the data set on Human alphaherpesvirus 3 [1] came out at 10 µM; in the data set on Human betaherpesvirus 5 [2], 3 µM; with Human betaherpesvirus 5 [3], 2.9 µM; in the data set with Human alphaherpesvirus 1 [6], 10 µM; in the data set on Human alphaherpesvirus 1 [7] it was 10 µM; in the data set with Human alphaherpesvirus 2, 10 µM. Moreover, the concentration for a half-maximal effect (EC50) in the data set with Human alphaherpesvirus 3 [8] was 10 µM. Further, in data set [4], the MCC amounted to 20 µM. Further, the CC50 in data set [5] was found to be 51 µM. In addition, the IC50 with L1210 stood at 12 µM; in the data set with CCRF-CEM it was 13 µM; with HeLa, 19 µM.

As to `C=C(C)[C@@H]1CC[C@]2(C(=O)O)CC[C@]3(C)[C@H](CC[C@@H]4[C@@]5(C)Cc6n[nH]c(=S)nc6C(C)(C)[C@@H]5CC[C@]43C)[C@@H]12`, the EC50 in the data set with Human betaherpesvirus 5 [2] and in the data set on Human betaherpesvirus 5 [3] was at least 20 µM each time. Moreover, the MCC in data set [4] is over 100 µM. In addition, the CC50 in data set [5] is over 100 µM. Also, the IC50 in the data set on L1210 is 196 µM; in the data set with CCRF-CEM, 204 µM; with HeLa it was 160 µM.

Take `C=C(C)[C@@H]1CC[C@]2(C(=O)O)CC[C@]3(C)[C@H](CC[C@@H]4[C@@]5(C)Cc6nnc(SC)nc6C(C)(C)[C@@H]5CC[C@]43C)[C@@H]12`: the EC50 in the data set on Human betaherpesvirus 5 [2] was 1.8 µM; with Human betaherpesvirus 5 [3], 2 µM. The MCC in data set [4] worked out at 20 µM. Also, the half-maximal cytotoxic concentration (CC50) in [5] was determined as 45 µM. Moreover, the figures for the IC50 in the data set on L1210, in the data set with CCRF-CEM and in the data set on HeLa were 7.3 µM, 2.6 µM and 7.3 µM, respectively.

Regarding `C#CCCSc1nnc2c(n1)C(C)(C)[C@@H]1CC[C@]3(C)[C@H](CC[C@@H]4[C@H]5[C@H](C(=C)C)CC[C@]5(C(=O)O)CC[C@]43C)[C@@]1(C)C2`, the EC50 was over 4 µM in the data set on Human betaherpesvirus 5 [2] and at least 4 µM in the data set on Human betaherpesvirus 5 [3]. Further, the MCC in data set [4] came out at 20 µM. In addition, the CC50 in [5] came to 55 µM. In addition, the IC50 with L1210 turned out to be 4.9 µM; in the data set on CCRF-CEM, 1.2 µM; with HeLa, 9.1 µM.

For `C=C(C)[C@@H]1CC[C@]2(C(=O)O)CC[C@]3(C)[C@H](CC[C@@H]4[C@@]5(C)Cc6cc7c(nc6C(C)(C)[C@@H]5CC[C@]43C)SCC7)[C@@H]12`, the EC50 in the data set on Human betaherpesvirus 5 [2] came to 8.6 µM; in the data set on Human betaherpesvirus 5 [3] it was 11 µM. The CC50 in data set [5] was determined as 74 µM. Besides, the IC50 with L1210 was found to be 7.8 µM; with CCRF-CEM, 3.8 µM; in the data set on HeLa it was 10 µM.
